Experimental data taken from ChEMBL document CHEMBL1156106 (J Med Chem, 2009).

Legend:
Rattus norvegicus [1] = assay: Effect on behavioural activity in rat assessed as cocaine-induced lever response at 40 mg/kg, po pretreated with cocaine for 45 mins by drug-discrimination studies; assay type: functional
Rattus norvegicus [2] = assay: Effect on behavioural activity in rat assessed as cocaine-induced lever response at 5 mg/kg, ip pretreated with cocaine for 15 mins by drug-discrimination studies; assay type: functional; settings: route intraperitoneal
Rattus norvegicus [3] = assay: Effect on behavioural activity in rat assessed as cocaine-induced lever response at 20 mg/kg, po pretreated with cocaine for 360 mins by drug-discrimination studies; assay type: functional
[4] = target: Sodium-dependent serotonin transporter (Homo sapiens, UniProt P31645); assay: biochemical; assay type: cell-based, HEK293
Rattus norvegicus [5] = assay: Effect on behavioural activity in rat assessed as cocaine-induced lever response at 2.5 mg/kg, po pretreated with cocaine for 180 mins by drug-discrimination studies; assay type: functional
Rattus norvegicus [6] = assay: Effect on behavioural activity in rat assessed as cocaine-induced lever response at 5 mg/kg, po pretreated with cocaine for 45 mins by drug-discrimination studies; assay type: functional
Rattus norvegicus [7] = assay: Effect on behavioural activity in rat assessed as cocaine-induced lever response at 5 mg/kg, po pretreated with cocaine for 360 mins by drug-discrimination studies; assay type: functional
Rattus norvegicus [8] = assay: Effect on behavioural activity in rat assessed as cocaine-induced lever response at 40 mg/kg, po pretreated with cocaine for 180 mins by drug-discrimination studies; assay type: functional
Rattus norvegicus [9] = assay: Effect on behavioural activity in rat assessed as cocaine-induced lever response at 20 mg/kg, po pretreated with cocaine for 180 mins by drug-discrimination studies; assay type: functional
Rattus norvegicus [10] = assay: Effect on behavioural activity in rat assessed as cocaine-induced lever response at 20 mg/kg, po pretreated with cocaine for 45 mins by drug-discrimination studies; assay type: functional
Rattus norvegicus [11] = assay: Effect on behavioural activity in ip dosed rat assessed as cocaine-induced lever response pretreated with cocaine by drug-discrimination studies; assay type: functional
Rattus norvegicus [12] = assay: Effect on behavioural activity in rat assessed as cocaine-induced lever response at 20 mg/kg, po pretreated with cocaine for 90 mins by drug-discrimination studies; assay type: functional
Rattus norvegicus [13] = assay: Effect on behavioural activity in rat assessed as cocaine-induced lever response at 10 mg/kg, ip pretreated with cocaine for 15 mins by drug-discrimination studies; assay type: functional; settings: route intraperitoneal
Rattus norvegicus [14] = assay: Effect on behavioural activity in rat assessed as cocaine-induced lever response at 40 mg/kg, po pretreated with cocaine for 90 mins by drug-discrimination studies; assay type: functional
Rattus norvegicus [15] = assay: Effect on behavioural activity in rat assessed as cocaine-induced lever response at 2.5 mg/kg, po pretreated with cocaine for 45 mins by drug-discrimination studies; assay type: functional
Rattus norvegicus [16] = assay: Effect on behavioural activity in rat assessed as cocaine-induced lever response at 2.5 mg/kg, ip pretreated with cocaine for 15 mins by drug-discrimination studies; assay type: functional; settings: route intraperitoneal
Rattus norvegicus [17] = assay: Effect on behavioural activity in rat assessed as cocaine-induced lever response at 80 mg/kg, po pretreated with cocaine for 90 mins by drug-discrimination studies; assay type: functional
Rattus norvegicus [18] = assay: Effect on behavioural activity in rat assessed as cocaine-induced lever response at 2.5 mg/kg, po pretreated with cocaine for 90 mins by drug-discrimination studies; assay type: functional
Mus musculus [19] = assay: Antidepressant activity in ip dosed mouse assessed as time to reach peak stimulation of locomotor activity; assay type: functional
Mus musculus [20] = assay: Antidepressant activity in ip dosed mouse assessed as stimulation of locomotor activity relative to cocaine; assay type: functional
Rattus norvegicus [21] = assay: Effect on behavioural activity in rat assessed as cocaine-induced lever response at 5 mg/kg, po pretreated with cocaine for 90 mins by drug-discrimination studies; assay type: functional
Rattus norvegicus [22] = assay: Effect on behavioural activity in rat assessed as cocaine-induced lever response at 2.5 mg/kg, po pretreated with cocaine for 360 mins by drug-discrimination studies; assay type: functional
Rattus norvegicus [23] = assay: Effect on behavioural activity in rat assessed as cocaine-induced lever response at 80 mg/kg, po pretreated with cocaine for 180 mins by drug-discrimination studies; assay type: functional
Mus musculus [24] = assay: Antidepressant activity in ip dosed mouse assessed as duration of locomotor activity; assay type: functional
Rattus norvegicus [25] = assay: Effect on behavioural activity in rat assessed as cocaine-induced lever response at 25 mg/kg, ip pretreated with cocaine for 15 mins by drug-discrimination studies; assay type: functional; settings: route intraperitoneal
Rattus norvegicus [26] = assay: Effect on behavioural activity in rat assessed as cocaine-induced lever response at 80 mg/kg, po pretreated with cocaine for 360 mins by drug-discrimination studies; assay type: functional
Rattus norvegicus [27] = assay: Effect on behavioural activity in rat assessed as cocaine-induced lever response at 40 mg/kg, po pretreated with cocaine for 360 mins by drug-discrimination studies; assay type: functional
Rattus norvegicus [28] = assay: Effect on behavioural activity in rat assessed as cocaine-induced lever response at 10 mg/kg, po pretreated with cocaine for 45 mins by drug-discrimination studies; assay type: functional
Rattus norvegicus [29] = assay: Effect on behavioural activity in rat assessed as cocaine-induced lever response at 10 mg/kg, po pretreated with cocaine for 90 mins by drug-discrimination studies; assay type: functional
Rattus norvegicus [30] = assay: Effect on behavioural activity in rat assessed as cocaine-induced lever response at 5 mg/kg, po pretreated with cocaine for 180 mins by drug-discrimination studies; assay type: functional
Rattus norvegicus [31] = assay: Effect on behavioural activity in rat assessed as cocaine-induced lever response at 10 mg/kg, po pretreated with cocaine for 360 mins by drug-discrimination studies; assay type: functional
Rattus norvegicus [32] = assay: Effect on behavioural activity in po dosed rat assessed as cocaine-induced lever response pretreated with cocaine by drug-discrimination studies; assay type: functional
Rattus norvegicus [33] = assay: Effect on behavioural activity in rat assessed as cocaine-induced lever response at 80 mg/kg, po pretreated with cocaine for 45 mins by drug-discrimination studies; assay type: functional
Mus musculus [34] = assay: Antidepressant activity in ip dosed mouse assessed as stimulation of locomotor activity; assay type: functional
Rattus norvegicus [35] = assay: Effect on behavioural activity in rat assessed as cocaine-induced lever response at 0.1 mg/kg, ip pretreated with cocaine for 15 mins by drug-discrimination studies; assay type: functional; settings: route intraperitoneal
Rattus norvegicus [36] = assay: Effect on behavioural activity in rat assessed as cocaine-induced lever response at 0.25 mg/kg, po pretreated with cocaine for 90 mins by drug-discrimination studies; assay type: functional
Rattus norvegicus [37] = assay: Effect on behavioural activity in rat assessed as cocaine-induced lever response at 25 mg/kg, po pretreated with cocaine for 180 mins by drug-discrimination studies; assay type: functional
Rattus norvegicus [38] = assay: Effect on behavioural activity in rat assessed as cocaine-induced lever response at 0.5 mg/kg, po pretreated with cocaine for 180 mins by drug-discrimination studies; assay type: functional
Rattus norvegicus [39] = assay: Effect on behavioural activity in rat assessed as cocaine-induced lever response at 25 mg/kg, po pretreated with cocaine for 90 mins by drug-discrimination studies; assay type: functional
Rattus norvegicus [40] = assay: Effect on behavioural activity in rat assessed as cocaine-induced lever response at 0.5 mg/kg, po pretreated with cocaine for 45 mins by drug-discrimination studies; assay type: functional
Rattus norvegicus [41] = assay: Effect on behavioural activity in rat assessed as cocaine-induced lever response at 1 mg/kg, po pretreated with cocaine for 180 mins by drug-discrimination studies; assay type: functional
Rattus norvegicus [42] = assay: Effect on behavioural activity in rat assessed as cocaine-induced lever response at 0.5 mg/kg, ip pretreated with cocaine for 15 mins by drug-discrimination studies; assay type: functional; settings: route intraperitoneal
Rattus norvegicus [43] = assay: Effect on behavioural activity in rat assessed as cocaine-induced lever response at 1 mg/kg, po pretreated with cocaine for 360 mins by drug-discrimination studies; assay type: functional
Rattus norvegicus [44] = assay: Effect on behavioural activity in rat assessed as cocaine-induced lever response at 1 mg/kg, po pretreated with cocaine for 41 mins by drug-discrimination studies; assay type: functional
Rattus norvegicus [45] = assay: Effect on behavioural activity in rat assessed as cocaine-induced lever response at 0.25 mg/kg, po pretreated with cocaine for 45 mins by drug-discrimination studies; assay type: functional
Rattus norvegicus [46] = assay: Effect on behavioural activity in rat assessed as cocaine-induced lever response at 0.25 mg/kg, po pretreated with cocaine for 360 mins by drug-discrimination studies; assay type: functional
Rattus norvegicus [47] = assay: Effect on behavioural activity in rat assessed as cocaine-induced lever response at 10 mg/kg, po pretreated with cocaine for 180 mins by drug-discrimination studies; assay type: functional
Rattus norvegicus [48] = assay: Effect on behavioural activity in rat assessed as cocaine-induced lever response at 0.25 mg/kg, ip pretreated with cocaine for 15 mins by drug-discrimination studies; assay type: functional; settings: route intraperitoneal
Rattus norvegicus [49] = assay: Effect on behavioural activity in rat assessed as cocaine-induced lever response at 0.5 mg/kg, po pretreated with cocaine for 90 mins by drug-discrimination studies; assay type: functional
Rattus norvegicus [50] = assay: Effect on behavioural activity in rat assessed as cocaine-induced lever response at 1 mg/kg, ip pretreated with cocaine for 15 mins by drug-discrimination studies; assay type: functional; settings: route intraperitoneal
Rattus norvegicus [51] = assay: Effect on behavioural activity in rat assessed as cocaine-induced lever response at 0.25 mg/kg, po pretreated with cocaine for 180 mins by drug-discrimination studies; assay type: functional
Rattus norvegicus [52] = assay: Effect on behavioural activity in rat assessed as cocaine-induced lever response at 0.5 mg/kg, po pretreated with cocaine for 360 mins by drug-discrimination studies; assay type: functional
Rattus norvegicus [53] = assay: Effect on behavioural activity in rat assessed as cocaine-induced lever response at 25 mg/kg, po pretreated with cocaine for 45 mins by drug-discrimination studies; assay type: functional
Rattus norvegicus [54] = assay: Effect on behavioural activity in rat assessed as cocaine-induced lever response at 25 mg/kg, po pretreated with cocaine for 360 mins by drug-discrimination studies; assay type: functional
Rattus norvegicus [55] = assay: Effect on behavioural activity in rat assessed as cocaine-induced lever response at 1 mg/kg, po pretreated with cocaine for 90 mins by drug-discrimination studies; assay type: functional

Sequence of Sodium-dependent serotonin transporter (P31645 whole entry): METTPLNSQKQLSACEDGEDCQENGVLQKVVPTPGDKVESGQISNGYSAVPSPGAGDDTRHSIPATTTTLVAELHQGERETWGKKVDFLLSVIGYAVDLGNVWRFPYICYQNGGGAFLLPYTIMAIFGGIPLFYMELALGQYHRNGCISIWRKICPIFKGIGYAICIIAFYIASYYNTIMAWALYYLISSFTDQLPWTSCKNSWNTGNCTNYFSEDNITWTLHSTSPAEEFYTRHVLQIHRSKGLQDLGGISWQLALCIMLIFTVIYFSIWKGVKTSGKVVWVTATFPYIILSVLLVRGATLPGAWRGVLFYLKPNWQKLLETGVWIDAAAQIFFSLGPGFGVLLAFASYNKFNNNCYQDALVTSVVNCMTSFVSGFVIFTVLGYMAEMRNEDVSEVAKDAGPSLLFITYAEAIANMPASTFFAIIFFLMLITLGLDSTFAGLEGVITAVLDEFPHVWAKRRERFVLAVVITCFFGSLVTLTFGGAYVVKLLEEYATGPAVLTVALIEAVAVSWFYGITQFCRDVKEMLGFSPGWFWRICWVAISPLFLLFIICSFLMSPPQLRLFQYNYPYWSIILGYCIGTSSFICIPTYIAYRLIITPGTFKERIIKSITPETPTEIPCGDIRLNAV

CCCC(NC(C)(C)C)C(=O)c1cccc(Cl)c1 (stereo not given)
Activity (Rattus norvegicus [1]): 50% | Activity (Rattus norvegicus [2]): 17.2% | Activity (Rattus norvegicus [3]): 0% | Ki [4]: > 10 µM | Activity (Rattus norvegicus [5]): 0% | Activity (Rattus norvegicus [6]): 17% | Activity (Rattus norvegicus [7]): 0% | Activity (Rattus norvegicus [8]): 17% | Activity (Rattus norvegicus [9]): 0% | Activity (Rattus norvegicus [10]): 33% | ED50 (Rattus norvegicus [11]): 7.8 mg/kg | Activity (Rattus norvegicus [12]): 33% | Activity (Rattus norvegicus [13]): 33.3% | Activity (Rattus norvegicus [14]): 17% | Activity (Rattus norvegicus [15]): 0% | Activity (Rattus norvegicus [16]): 0.2% | Activity (Rattus norvegicus [17]): 100% | Activity (Rattus norvegicus [18]): 0% | Time to peak locomotor stimulation (Mus musculus [19]): 90 min | Activity (Mus musculus [20]): 108% | Activity (Rattus norvegicus [21]): 0% | Activity (Rattus norvegicus [22]): 0% | Activity (Rattus norvegicus [23]): 50% | Time (Mus musculus [24]): 210 min | Activity (Rattus norvegicus [25]): 83.3% | Activity (Rattus norvegicus [26]): 1% | Activity (Rattus norvegicus [27]): 16% | Activity (Rattus norvegicus [28]): 33% | Activity (Rattus norvegicus [29]): 0% | Activity (Rattus norvegicus [30]): 22% | Activity (Rattus norvegicus [31]): 0% | ED50 (Rattus norvegicus [32]): 23.2 mg/kg | Activity (Rattus norvegicus [33]): 100% | ED50 (Mus musculus [34]): 15.5 mg/kg

CC(NC1CC1)C(=O)c1cccc(Cl)c1 (stereo not given)
Activity (Rattus norvegicus [35]): 9% | Activity (Rattus norvegicus [2]): 67.2% | Activity (Rattus norvegicus [5]): 34% | Activity (Rattus norvegicus [6]): 34% | Activity (Rattus norvegicus [36]): 0% | Activity (Rattus norvegicus [37]): 99% | Activity (Rattus norvegicus [7]): 0% | Activity (Rattus norvegicus [38]): 0% | Activity (Rattus norvegicus [39]): 83% | Activity (Rattus norvegicus [40]): 1% | Activity (Rattus norvegicus [41]): 0% | Activity (Rattus norvegicus [13]): 66.7% | Activity (Rattus norvegicus [42]): 63% | Activity (Rattus norvegicus [15]): 34% | Activity (Rattus norvegicus [16]): 39.5% | Activity (Rattus norvegicus [18]): 0% | Time to peak locomotor stimulation (Mus musculus [19]): 0 min | Activity (Rattus norvegicus [43]): 0% | Activity (Mus musculus [20]): 82% | Activity (Rattus norvegicus [44]): 0% | Activity (Rattus norvegicus [45]): 0% | Activity (Rattus norvegicus [46]): 34% | Activity (Rattus norvegicus [21]): 0% | Activity (Rattus norvegicus [22]): 0% | Activity (Rattus norvegicus [47]): 33% | Time (Mus musculus [24]): 350 min | Activity (Rattus norvegicus [48]): 24% | Activity (Rattus norvegicus [25]): 66.3% | Activity (Rattus norvegicus [49]): 16% | Activity (Rattus norvegicus [50]): 21.5% | Activity (Rattus norvegicus [51]): 0% | Activity (Rattus norvegicus [52]): 2% | Activity (Rattus norvegicus [28]): 74% | Activity (Rattus norvegicus [29]): 33% | Activity (Rattus norvegicus [30]): 0% | Activity (Rattus norvegicus [31]): 0% | ED50 (Rattus norvegicus [32]): 12.8 mg/kg | Activity (Rattus norvegicus [53]): 67% | Activity (Rattus norvegicus [54]): 0% | Activity (Rattus norvegicus [55]): 0% | ED50 (Mus musculus [34]): 16.6 mg/kg
